Structures are written as SMILES.

What is called melting point is the temperature, or range, at which the solid turns liquid. The compound `NNC(=O)c1cccc(-c2csc(N=C(N)N)n2)n1` had a melting point of 233 to 234 °C. The result for `Cc1cc(C)c2c(n1)CC(c1ccccc1)CC2=O` (stereo not given) reads 97 to 99 °C; that for `CCOC(=O)Nc1ccc(OC)cc1C(C)=O`, 97 to 100 °C; that for `Cc1c(NC(=O)CC(C)(C)C)cc2c(c1C)O[C@@H](C)[C@H]2c1ccc(C(C)C)cc1` (relative stereo), 94 to 95 °C.

`O=C1CCC(c2ccc(N=Cc3ccc(C(F)(F)F)cc3)cc2)=NN1` displayed a melting point of 245 to 247 °C. The compound `O=c1oc2ccccc2c(OCCN2CCOCC2)c1-c1ccccc1` had a melting point of 97 °C.

Compound `C#CCN=c1sc2cc(OC(F)(F)F)ccc2n1CC(=O)c1ccc(C)cc1` showed a melting point of 98 to 100 °C. In turn, `COc1cc2c(cc1OC)-c1ccc(OC)c(OC)c1C2=Cc1ccnc2ccccc12` yielded a melting point of 203 to 205 °C. Compound `CC1(C(=O)c2c[nH]c3ncc(-c4cccs4)nc23)CCCCC1` had a melting point of 224 to 225 °C. The result for `Cc1ccc(C(=O)c2ccc(Cc3ccc(N)cn3)n2C)cc1` reads 104 to 107 °C; that for `Cc1cc(C)c(C)c(OC(C)(C)C(=O)O)c1`, 91 to 94 °C. The result for `Nc1c(I)c(-c2ccccc2)nn1-c1c(Cl)cc(C(F)(F)F)cc1Cl` reads 162 to 164 °C. With `COc1ccc(-n2cnc(-c3cccc(C(=O)O)c3)n2)cc1`, the melting point is 230 to 232 °C. The result for `NS(=O)(=O)Cc1cccc2c1C(=O)OC2` reads 192 to 195 °C. The result for `Cc1ccc(-c2cccc(C(=O)O)c2)cc1` reads 182 to 187 °C; that for `Cc1oc(-c2ccccc2)nc1COc1ccc2c(c1)CCC(CC1SC(=O)NC1=O)C2` (stereo not given), 194 to 195 °C. The result for `CC1C(Cl)(Cl)C1(C)C(=O)C(N)=O` (stereo not given) reads 87 to 89 °C; that for `COc1cc2cc(OCc3ccccc3)cnc2cc1OC`, 146 to 148 °C; that for `FC(F)(F)c1cccc2c(-c3ccccc3)c(Oc3ccccc3)cnc12`, 153 to 155 °C.

Compound `CC(C)Oc1ccc(N(N)C(=O)N(C)C)cc1Cl` came in with a melting point of 73 to 74 °C.

For `Cc1nc(-c2ccc(C(F)(F)F)cc2)sc1CSc1ccc(OCC(=O)O)c2c1CCCC2`, the melting point fell in the range of 166 to 167 °C. `Cc1nc(-n2cnn(Cc3ccc(OC(F)F)cc3)c2=O)sc1C(=O)NCc1cccnc1`: the melting point is 151 to 152 °C. Regarding `CCOc1ccnc2[nH]cc(C(C)=O)c12`, the melting point was more than 210 °C.

Consider `COC(=O)CCNC(=O)C1CCCN1C(=O)OCc1ccccc1` (stereo not given), for which the melting point was 55 °C. The same measure for `COc1cc(OC)c(F)c(N)c1F`: 78 to 79 °C; for `CCNC(=O)Nc1ccc(CC(CO)NCC(O)COc2ccccc2)cc1` (stereo not given): 129 to 130 °C. The same measure for `Clc1ncnc2ccccc12`: 83 °C.

In turn, `CC1=NCCN1Cc1ccc(CCNC(=O)c2ccc(-c3ccc(Cl)cc3)cc2)cc1` gave a melting point of 170 to 172 °C. As for `C#CCNC(=O)N1CC(Oc2cccc(C(F)(F)F)c2)C1`, the melting point lay in the range of 105 to 106 °C. The same measure for `CC1ON(C)C(=O)C(C(=O)c2ccc(Cl)cc2[N+](=O)[O-])C1=O` (stereo not given): 128 °C; for `O=C1c2ccccc2C(=O)N1CCCCOc1ccc(-c2ccncn2)cc1`: 100 to 102 °C. The result for `Cc1ncoc1C(O)c1ccc(F)cc1` (stereo not given) reads 102 to 104 °C; that for `COc1nc(Cl)nc(N)c1C`, 189 °C. The same measure for `CNC(=O)Oc1ccc(CN2CCN(c3ccc([N+](=O)[O-])cc3)CC2)cc1OC`: 155 to 157 °C; for `COc1ccc(CNc2nnc(-n3ccnc3)c3ccc(Cl)cc23)cc1Cl`: 221 to 222 °C. `Fc1ccc(Nc2ncnc3[nH]c(-c4ccc(CCl)cc4)cc23)cc1Cl` registered a melting point of more than 300 °C. Compound `O=C(C=Cc1cccc(Br)c1)Nc1ccc(CN2CCCCC2)cc1` registered a melting point of 144 to 145 °C. Regarding `O=c1[nH]c(N2CCOCC2)nc2c1CC(S(=O)(=O)c1ccccc1)CC2` (stereo not given), the melting point is more than 250 °C. Compound `O=C(O)COc1cc2c(c(Cl)c1Cl)C(=O)C(c1ccccc1)C2` (stereo not given) registered a melting point of 181 to 185 °C.

The compound `COc1cc2c(cc1OC)N(C(=O)OCc1ccccc1)C(C)CC2=O` (stereo not given) showed a melting point of 128 to 130 °C. The result for `CC(C)Oc1ccc2c(c1)Cc1ccccc1C2=O` reads 123 to 124 °C. The same measure for `CC(=O)NNC1=Nc2ccc(Cl)cc2C(c2c(F)cccc2F)=NC1`: 274 to 277 °C; for `COc1ccc2c(c1)OCC21C(=O)N(Cc2cccnc2)c2ccccc21` (stereo not given): 164 to 165 °C; for `COc1cc(OC)c2c(=O)cc(-c3nc4ccccc4[nH]3)oc2c1`: 245 to 246 °C.

Regarding `CC(=O)c1ccc(-c2ccc(N(Cc3ccccc3)Cc3ccccc3)cc2)c(C)c1`, the melting point lay within 145 to 146 °C. Take `COC(=O)C(Br)c1ccc(S(C)(=O)=O)cc1` (stereo not given): the melting point lay within 81.8 to 83.3 °C. The result for `CCCCc1cnc(SC)[nH]c1=O` reads 138 to 140 °C; that for `COc1ccc(C=Cc2cc(OC)c(OC)c(OC)c2)c(O)c1O`, 114 to 115 °C; that for `CN1CCN(c2ccc(-n3c(-c4cc(-c5cnc6[nH]ccc6c5)ccn4)cn(C)c3=O)cc2C(F)(F)F)CC1`, 241 °C. The same measure for `N#Cc1cc(NC(=O)c2ccn(-c3ccc(Cl)cc3)c2)ccc1N1CCN(C2CCOCC2)CC1`: 224 °C; for `N#CC1=C(C#N)Sc2nc3cc([N+](=O)[O-])c(Cl)cc3nc2S1`: 228 to 230 °C. In the case of `CC(=O)C1=CCC2C3CCC4CC=CCC4(C)C3C(=O)CC12C` (stereo not given), the melting point lay in the range of 176 to 177 °C. On to `O=C(Oc1cccc2ccccc12)c1ccc(CCl)cc1`, for which the melting point lay within 93 to 96 °C. `Cc1ccn2c(=O)c(CCN3CCN(c4ccc(Cl)cc4)CC3)c(C)nc2c1` registered a melting point of 156 to 157 °C.

Compound `O=C1CCC(N2C=Nc3ccccc3CC2)C(=O)N1` (stereo not given) displayed a melting point of 84 to 91 °C. For `COc1ccc(C2Sc3c(ccc4ccccc34)N(CCN(C)C)C(=O)C2O)cc1` (stereo not given), the melting point was in the range of 160 to 161 °C.

`O=c1[nH]c(-c2ccc(CCCCN3CCN(c4nsc5ccccc45)CC3)cc2)cs1` registered a melting point of 140 to 145 °C.

`CS(=O)(=O)c1cccc(NC(=O)c2cnn3c(C(F)F)cc(-c4ccc(Cl)c(Cl)c4)nc23)c1`: the melting point worked out at 262 °C. The result for `FC(F)(F)COc1ccccc1N1CCNCC1` reads 107 to 108 °C; that for `CCOC(=O)c1c(N)sc(C#N)c1C`, 200 to 202 °C; that for `Cn1c(C(F)(F)F)cc(=O)n(-c2c(F)cc(Cl)c3c2OC(C)(C)CC3)c1=O`, 132 to 135 °C. Take `CCOC(=O)c1cc2c([nH]1)c(N(C)S(=O)(=O)c1cccs1)cn2Cc1ccccc1`: the melting point is 120 °C. The result for `CCC(CC)Nc1c(C)cnc(Oc2c(C)cc(Cl)cc2C)c1N` reads 72 to 74 °C; that for `COc1cc(C2=CCCCC2)c(Cl)cc1C(=O)N1Cc2ccc(C(=O)N(C)C[C@@H]3OC(=O)O[C@H]3[C@H](O)[C@H]3COC(=O)O3)n2Cc2ccccc21`, 163 to 176 °C.

`COC(=O)c1ccc(Cn2c(C)cn(C3CCc4ccccc4C3)c2=S)cc1` (stereo not given) displayed a melting point of 140 to 141 °C.

For the compound `Nc1ccc(S(=O)(=O)Nc2cc(N)cc(N)c2)cc1`, the melting point was in the range of 188 to 190 °C. The same measure for `CCOC(=O)/C=C/c1cccc(C(=O)c2ccc(C(F)(F)F)cc2)n1`: 66 to 68 °C.

The compound `Nc1cc(C(=O)O)ccc1OCCCCCCc1cccc(O)c1O` gave a melting point of 172 to 174 °C. The same measure for `COCCc1nc2c(N)nc3ccccc3c2n1CC(C)(C)CNC(=O)c1ccccc1`: 103 to 125 °C; for `O=C(NCCCS(=O)(=O)c1ccncc1)c1cccs1`: 124 to 125 °C. The result for `CCOC(=O)C(C)=C(CC)NC(=O)Nc1cc(OC(C)C)c(Cl)cc1F` reads 104 to 106 °C; that for `CN(c1ccccc1)S(=O)(=O)N[C@@H](Cc1ccc(NC(=O)c2c(Cl)cccc2Cl)cc1)C(=O)O`, 117 °C. In turn, `Clc1ccc2nc(CN3CCc4ccccc4C3)[nH]c2c1` had a melting point of 204 to 206 °C.

`CC(C)c1cccc(NC(=O)c2ccccc2C(F)(F)F)c1` registered a melting point of 87.5 to 88.5 °C.

On to `CCCCCCCCCCCCCCCC(=O)OCC(CO)CCn1cnc2c(=O)[nH]c(N)nc21` (stereo not given), for which the melting point fell in the range of 183 to 191 °C.

`O=C(c1cccs1)C(Cc1ccccc1F)n1cncn1` (stereo not given): the melting point is 121 to 122 °C. The same measure for `CC(C)CCCC(C)CCOc1cc(CCl)c(OCCC(C)CCCC(C)C)cc1CCl` (stereo not given): 55 °C.

Regarding `Cc1ccccc1C(O)c1cncnc1C(C)(C)C` (stereo not given), the melting point lay within 125 to 127 °C. The same measure for `COc1c(F)cc2[nH]c(=O)c(=O)[nH]c2c1[N+](=O)[O-]`: 290 to 292 °C; for `Cc1csc(C(=O)c2[nH]c3cc(Cl)ccc3c2CC(=O)O)n1`: 239 to 240 °C. The same measure for `NCCSC(c1ccccc1)(c1ccccc1)c1ccccc1`: 142 to 143 °C. The result for `CC(=O)CC(=O)Nc1nc(C)c(C)s1` reads 191 to 193 °C; that for `CC(C)(C)OC(=O)c1ccc(C(=O)N[C@H]2CN3C(=O)N(c4cc(Cl)cc(Cl)c4)C(=O)[C@@]3(Cc3ccc(Br)cc3)C2)cc1`, 112 °C.

Regarding `O=C(Nc1ccc(Br)cc1)OC1CN2CCC1CC2` (stereo not given), the melting point was in the range of 218 to 220 °C. In turn, `CC(C)(C)OC(=O)Nc1nc2cc(N)ccc2[nH]1` came in with a melting point of 168 °C. The same measure for `CC(NCCCO)c1ccc(C2CCC(N(C)C(=O)c3ccc(Cl)cc3)CC2)cc1` (stereo not given): 118 to 120 °C; for `COc1ccc2c(c1)C(C(=O)N(Cc1ccc(-n3ccnc3)cc1)c1ccc(C(C)C)cc1)CCC2` (stereo not given): 111 °C.

`CC(C)(Oc1ccc(N)cc1)C(=O)O` had a melting point of 214 to 216 °C. The result for `Cc1cccn2cc(C(C)C)c(S(=O)(=O)c3ccc(O)cc3)c12` reads 191 to 193 °C; that for `CS(=O)(=O)c1ccc(C(=O)C2C(=O)CCCC2=O)c(Cl)c1C1=NOC2OCCC12` (stereo not given), 119 °C.

The values are drawn from a melting point compilation (Tetko et al.; mined from patent text by program, amines drawn as free bases though some values may be those of a salt).
